# Results reported in patent publication US20130315848A1, “COSMETIC COMPOSITION FOR SKIN WHITENING COMPRISING RESVERATROL” (DSM IP ASSETS B.V., priority 2010, published 2013).
# Test: Analysis of radioactivity in the formulations: trans/cis isomer content
# Format: physicochemical
# Details: 14C radioactivity in formulation extracts
# Description: The different degree of isomerization could be explained by the extent of light exposure during the preparation of the cream and/or during the extraction procedure in the course of the series of experiments.
substance,measurement,value
[phenyl-^14C]-resveratrol [^14C-Resveratrol stock solution],Resveratrol cis isomer,0%
same,Resveratrol trans-isomer,100%
